Values after ≈ are worked out from the molar mass of the structure shown. Values joined by “and” are separate entries in the source; they are usually repeats but may differ in a detail not shown here. Equal values may be shown once. Active and inactive are the calls of the source. No cut-off for these calls is given here.
Legend:
Escherichia coli = test: Antimicrobial activity against Escherichia coli NCIM 2574 assessed as zone of inhibition by well diffusion method; type: functional
Proteus mirabilis [1] = test: Antimicrobial activity against Proteus mirabilis NCIM 2388 assessed as zone of inhibition by well diffusion method; type: functional
Bacillus subtilis = test: Antimicrobial activity against Bacillus subtilis NCIM 2063 assessed as zone of inhibition by well diffusion method; type: functional
Staphylococcus aureus [2] = test: Antimicrobial activity against Staphylococcus aureus NCIM 2178 assessed as zone of inhibition by well diffusion method; type: functional
Candida albicans = test: Antifungal activity against Candida albicans NCIM 3100 assessed as zone of inhibition by well diffusion method; type: functional
Aspergillus niger [3] = test: Antifungal activity against Aspergillus niger ATCC 504 assessed as zone of inhibition by well diffusion method; type: functional
Staphylococcus aureus [4] = test: Antimicrobial activity against Staphylococcus aureus NCIM 2178 assessed as absence of growth by well diffusion method; type: functional
Aspergillus niger [5] = test: Antifungal activity against Aspergillus niger ATCC 504 assessed as absence of growth by well diffusion method; type: functional
[6] = tested on: Mycobacterium tuberculosis; test: Antitubercular activity Mycobacterium tuberculosis H37Rv strain ATCC No- 27294 assessed as prevention of color change from blue to pink using Almar Blue measured after 24 hrs by MABA assay; type: functional
[7] = Cytotoxicity against mouse 3T3-L1 cells assessed as cell viability at 12.5 ug/ml measured after 24 hrs by MTT assay relative to control; type: toxicity, cell-based; settings: at 12.5 µg/mL, read-out: Activity
[8] = Cytotoxicity against mouse 3T3-L1 cells assessed as cell viability at 25 ug/ml measured after 24 hrs by MTT assay relative to control; type: toxicity, cell-based; settings: at 25 µg/mL, read-out: Activity
Proteus mirabilis [9] = test: Antimicrobial activity against Proteus mirabilis NCIM 2388 assessed as absence of growth by well diffusion method; type: functional

SMILES	inhibition zone (IZ) (Escherichia coli)	inhibition zone (IZ) (Proteus mirabilis [1])	inhibition zone (IZ) (Bacillus subtilis)	inhibition zone (IZ) (Staphylococcus aureus [2])	inhibition zone (IZ) (Candida albicans)	inhibition zone (IZ) (Aspergillus niger [3])	MIC (Staphylococcus aureus [4])	MIC (Aspergillus niger [5])	MIC [6]	viability at 24 h, 12.5 ug/ml [7]	viability at 24 h, 25 ug/ml [8]	MIC (Proteus mirabilis [9])
COc1ccc(Nc2nc(-c3cn(-c4ccc(F)cc4)nc3-c3ccccc3)cs2)cc1	inactive	13.8 mm	12.4 mm	15 mm	10.4 mm	19.2 mm	125 µg/mL (≈ 282 µM)	15.6 µg/mL and 35.3 µM	3.12 µg/mL and 7.07 µM	98.2%	97.2%	
c1ccc(Nc2nc(-c3cn(-c4ccccc4)nc3-c3ccccc3)cs2)cc1	inactive	15 mm	11.2 mm	16 mm	11.2 mm	18.8 mm	62.5 µg/mL and 1590 µM	15.6 µg/mL and 39.6 µM	1.6 µg/mL and 4.06 µM	97.5%	90.5%	125 µg/mL (≈ 317 µM)
Clc1ccc(-c2nn(-c3ccccc3)cc2-c2csc(Nc3ccccc3)n2)cc1	inactive	15.2 mm	12 mm	14 mm	11 mm	17.4 mm	125 µg/mL (≈ 291 µM)	31.2 µg/mL and 72.8 µM	25 µg/mL and 58.4 µM			125 µg/mL (≈ 291 µM)
Fc1ccc(-n2cc(-c3csc(Nc4ccccc4)n3)c(-c3ccc(Cl)cc3)n2)cc1	inactive	14.2 mm	13.4 mm	15 mm	11 mm	18.2 mm	125 µg/mL (≈ 280 µM)	15.6 µg/mL and 35 µM	1.6 µg/mL and 3.58 µM	69.2%	62.6%	125 µg/mL (≈ 280 µM)
COc1ccc(Nc2nc(-c3cn(-c4ccccc4)nc3-c3ccc(C)cc3)cs2)cc1	inactive	15 mm	12.4 mm	14 mm	10.6 mm	18.6 mm	125 µg/mL (≈ 285 µM)	15.6 µg/mL and 35.7 µM	50 µg/mL and 114 µM	97.5%	90.5%	125 µg/mL (≈ 285 µM)
NNC(=O)c1ccncc1 [ISONIAZID]									1.6 µg/mL and 11.7 µM			
Fc1ccc(-n2cc(-c3csc(Nc4ccc(Cl)cc4)n3)c(-c3ccc(Cl)cc3)n2)cc1	11 mm	13.6 mm	12.6 mm	15 mm	10.4 mm	19 mm	125 µg/mL (≈ 260 µM)	15.6 µg/mL and 32.5 µM	1.6 µg/mL and 3.33 µM	74.4%	56.7%	
NC(=O)c1cnccn1 [PYRAZINAMIDE]									3.12 µg/mL and 25.4 µM			
CC[C@@H](CO)NCCN[C@@H](CC)CO [ETHAMBUTOL]									1.6 µg/mL and 7.83 µM			
COc1ccc(Nc2nc(-c3cn(-c4ccccc4)nc3-c3ccccc3)cs2)cc1	inactive	14.2 mm	12.75 mm	15 mm	11.6 mm	20 mm	125 µg/mL (≈ 294 µM)	15.6 µg/mL and 36.8 µM	25 µg/mL and 58.9 µM			125 µg/mL (≈ 294 µM)
Cc1ccc(Nc2nc(-c3cn(-c4ccc(F)cc4)nc3-c3ccc(Cl)cc3)cs2)cc1	inactive	15 mm	12.2 mm	17 mm	10.8 mm	20.2 mm	62.5 µg/mL and 136 µM	15.6 µg/mL and 34 µM	1.6 µg/mL and 3.47 µM	72%	91.3%	125 µg/mL (≈ 271 µM)
Fc1ccc(-n2cc(-c3csc(Nc4ccc(Cl)cc4)n3)c(-c3ccccc3)n2)cc1	13 mm	15 mm	13 mm	16 mm	10.8 mm	18.8 mm	62.5 µg/mL and 140 µM	15.6 µg/mL and 35 µM	3.12 µg/mL and 7.01 µM	102%	46%	125 µg/mL (≈ 280 µM)
CO[C@H]1/C=C/O[C@@]2(C)Oc3c(C)c(O)c4c(O)c(c(/C=N/N5CCN(C)CC5)c(O)c4c3C2=O)NC(=O)/C(C)=C\C=C\[C@H](C)[C@H](O)[C@@H](C)[C@@H](O)[C@@H](C)[C@H](OC(C)=O)[C@@H]1C [RIFAMPIN]									0.8 µg/mL and 0.972 µM			
Cc1ccc(Nc2nc(-c3cn(-c4ccccc4)nc3-c3ccccc3)cs2)cc1	inactive	15 mm	12 mm	15 mm	10.4 mm	18.4 mm	125 µg/mL (≈ 306 µM)	15.6 µg/mL and 38.3 µM	50 µg/mL and 122 µM			125 µg/mL (≈ 306 µM)
Clc1ccc(Nc2nc(-c3cn(-c4ccccc4)nc3-c3ccccc3)cs2)cc1	inactive	14.8 mm	12.2 mm	15.8 mm	11.2 mm	19.2 mm	62.5 µg/mL and 146 µM	15.6 µg/mL and 36.5 µM	25 µg/mL and 58.4 µM			125 µg/mL (≈ 291 µM)
COc1ccc(Nc2nc(-c3cn(-c4ccc(F)cc4)nc3-c3ccc(Cl)cc3)cs2)cc1	inactive	13.2 mm	12.2 mm	15 mm	11.4 mm	18.8 mm	125 µg/mL (≈ 262 µM)	15.6 µg/mL and 32.8 µM	1.6 µg/mL and 3.36 µM	72.9%	63.1%	
Cc1ccc(-c2nn(-c3ccccc3)cc2-c2csc(Nc3ccccc3)n2)cc1	13 mm	15 mm	11.4 mm	15 mm	9.6 mm	20 mm	125 µg/mL (≈ 306 µM)	15.6 µg/mL and 38.3 µM	12.5 µg/mL and 30.6 µM	64.6%	57.3%	125 µg/mL (≈ 306 µM)
Fc1ccc(-n2cc(-c3csc(Nc4ccccc4)n3)c(-c3ccccc3)n2)cc1	inactive	13.8 mm	12 mm	15 mm	10 mm	18.6 mm	125 µg/mL (≈ 303 µM)	15.6 µg/mL and 37.9 µM	12.5 µg/mL and 30.3 µM	99.5%	94.8%	
Clc1ccc(Nc2nc(-c3cn(-c4ccccc4)nc3-c3ccc(Cl)cc3)cs2)cc1	inactive	14 mm	11.6 mm	14.2 mm	10.4 mm	17.4 mm	125 µg/mL (≈ 270 µM)	31.2 µg/mL and 67.5 µM	1.6 µg/mL and 3.46 µM	118%	99.2%	125 µg/mL (≈ 270 µM)
Cc1ccc(Nc2nc(-c3cn(-c4ccccc4)nc3-c3ccc(C)cc3)cs2)cc1	inactive	15 mm	13.2 mm	13 mm	11.4 mm	18 mm		15.6 µg/mL and 37 µM	1.6 µg/mL and 3.79 µM	70.1%		125 µg/mL (≈ 296 µM)
Cc1ccc(-c2nn(-c3ccccc3)cc2-c2csc(Nc3ccc(Cl)cc3)n2)cc1	inactive	13.8 mm	13.8 mm	16 mm	10 mm	20 mm	62.5 µg/mL and 141 µM	15.6 µg/mL and 35.3 µM	0.8 µg/mL and 1.8 µM	67.5%	61.8%	
Cc1ccc(Nc2nc(-c3cn(-c4ccccc4)nc3-c3ccc(Cl)cc3)cs2)cc1	inactive	14 mm	12 mm	15 mm	10.2 mm	18.2 mm	125 µg/mL (≈ 282 µM)	15.6 µg/mL and 35.3 µM	1.6 µg/mL and 3.61 µM	83.8%	72.9%	125 µg/mL (≈ 282 µM)
